Experimental data: patent US9513294B2, “Megastokes amino-triazolyl-BODIPY compounds and applications to live neuron staining and human serum albumin FA1 drug site probing” (National University of Singapore, priority 2012, dated 2016)
Each block holds one compound with its values, some of them ahead of it.

What was measured:
[1] = Absorbance and fluorescence emission spectra (SpectraMax M2); format: physicochemical; settings: for λmax Abs. (nm) / λmax Em. (nm): MKAC compound library; for λmax Abs. (nm) / λmax Absorp. (nm): absorbance maximum; for λmax Em. (nm) / λmax Emission (nm): fluorescence emission maximum; for λmax Absorp. (nm) / λmax Emission (nm): MKCA compound library
Experimental: BDC-8 (Blue): absorbance λmax=473 nm, emission λmax=585 nm; MK101-8 (Green): absorbance λmax=474 nm, emission λmax=563 nm; MKHA374-48 (Yellow): absorbance λmax=468 nm, λem=557 nm. The corresponding spectra of a reported BODIPY (BD-27; Red) are also included for comparison: absorbance λmax=551 nm, emission λmax=568 nm. The structures of BDC-8, MK101-8, MKHA374-48 and BD-27 are also depicted.
(§1) ^1H-NMR, ^19F-NMR and ^13C-NMR spectra were recorded on Bruker ACF300 (300 MHz), DPX300 (300 MHz) and AMX500 (500 MHz) spectrometers. High resolution mass spectra (ESI) were obtained on a Finnigan/MAT 95XL-T spectrometer. Spectroscopic and quantum yield data were measured on a SpectraMax M2 spectrophotometer (Molecular Devices). Data analysis was performed using GraphPrism 5.0. Analytical characterization was performed on a HPLC-MS (Agilent-1200 series) with a DAD detector and a single quadrupole mass spectrometer (6130 series) with an ESI probe. Analytical HPLC method: eluents, A: H2O (0.1% HCOOH), B: CH3CN (0.1% HCOOH), gradient 5% B to 95% B (10 min). Reverse-phase Phenomenex C18 Luna column (4.6×50 mm^2, 3.5 […]), flow rate: 1 mL/min.

[2] = Quantum yield measurements versus Acridine Yellow in EtOH; format: physicochemical; settings: for φ (%): quantum yield; for φ (quantum yield): excitation 460 nm
Experimental: as §1
Quantum yields were calculated by measuring the integrated emission area of the fluorescent spectra and comparing to the area measured for Acridine Yellow in EtOH when excited at 460 nm (Φfluorescence^AcridineYellow=0.47). Quantum yields for the amino-triazolyl-BODIPYs were calculated using the equation below, where F represents the area of fluorescent emission, η is the refractive index of the solvent, and Abs is absorbance at the excitation wavelength selected for standards and samples. Emission was integrated between 510 and 700 nm.

SMILES: CCCCCC(O)c1cn(-c2ccc3n2[B-](F)(F)[N+]2=C(N4CCCC4)C=CC2=C3c2ccc(NC(C)=O)cc2)nn1 (racemic) [MKAC215-69]
λmax Abs. (nm) [1]: 462 nm
λmax Em. (nm) [1]: 566 nm
φ (%) ([2]; MKAC compound library): 2.00%

SMILES: CCCC(C)c1cn(-c2ccc3n2[B-](F)(F)[N+]2=C(NCc4cc(F)cc(F)c4)C=CC2=C3c2ccc(N)cc2)nn1 (stereo not drawn) [MK412-3]
λmax Absorp. ([1]; MK library, Table 5): 476 nm
λmax Emission ([1]; MK library, Table 5): 562 nm
φ (quantum yield) ([2]; MK library, Table 5): 0.63%

SMILES: CCCC(C)c1cn(-c2ccc3n2[B-](F)(F)[N+]2=C(N4CCc5ccccc5C4)C=CC2=C3c2ccc(NC(C)=O)cc2)nn1 (stereo not drawn) [MKAC66-3]
λmax Abs. (nm) [1]: 469 nm
λmax Em. (nm) [1]: 583 nm
φ (%) ([2]; MKAC compound library): 2.40%

SMILES: CN(Cc1ccccc1)Cc1cn(-c2ccc3n2[B-](F)(F)[N+]2=C(N4CCCC4)C=CC2=C3c2ccc(NC(=O)CCl)cc2)nn1 [MKCA215-18]
λmax Absorp. (nm) [1]: 461 nm
λmax Emission (nm) [1]: 577 nm
φ (%) ([2]; MKCA compound library): 2.62%

SMILES: CCCc1cn(-c2ccc3n2[B-](F)(F)[N+]2=C(N4CCc5ccccc5C4)C=CC2=C3c2ccc(N)cc2)nn1 [MK66-48]
λmax Absorp. ([1]; MK library, Table 5): 480 nm
λmax Emission ([1]; MK library, Table 5): 581 nm
φ (quantum yield) ([2]; MK library, Table 5): 0.12%

SMILES: CCCc1cn(-c2ccc3n2[B-](F)(F)[N+]2=C(NCc4cc(F)cc(F)c4)C=CC2=C3c2ccc(N)cc2)nn1 [MK412-48]
λmax Absorp. ([1]; MK library, Table 5): 474 nm
λmax Emission ([1]; MK library, Table 5): 563 nm
φ (quantum yield) ([2]; MK library, Table 5): 1.55%

SMILES: CC(=O)Nc1ccc(C2=C3C=CC(N4CCCCC4)=[N+]3[B-](F)(F)n3c2ccc3-n2cc(-c3ccc(C(C)(C)C)cc3)nn2)cc1 [BDCAC-11]
λmax Absorp. ([1]; BDCAC library, Table 3): 465 nm
λmax Emission ([1]; BDCAC library, Table 3): 582 nm
φ (quantum yield) ([2]; BDCAC library, Table 3): 1.4%

SMILES: CC(=O)Nc1ccc(C2=C3C=CC(N4CCCCC4)=[N+]3[B-](F)(F)n3c2ccc3-n2cc(CO)nn2)cc1 [BDCAC-70]
λmax Absorp. ([1]; BDCAC library, Table 3): 467 nm
λmax Emission ([1]; BDCAC library, Table 3): 583 nm
φ (quantum yield) ([2]; BDCAC library, Table 3): 0.7%

SMILES: COc1cc(OC)cc(-c2cn(-c3ccc4n3[B-](F)(F)[N+]3=C(N5CCCCC5)C=CC3=C4c3ccc(NC(C)=O)cc3)nn2)c1 [BDCAC-14]
λmax Absorp. ([1]; BDCAC library, Table 3): 464 nm
λmax Emission ([1]; BDCAC library, Table 3): 588 nm
φ (quantum yield) ([2]; BDCAC library, Table 3): 1.0%

SMILES: CC(C)Cc1cn(-c2ccc3n2[B-](F)(F)[N+]2=C(N4CCCCC4)C=CC2=C3c2ccc(NC(=O)CCl)cc2)nn1 [BDCCA-43]
λmax Absorp. ([1]; BDCCA library, Table 4): 466 nm
λmax Emission ([1]; BDCCA library, Table 4): 583 nm
φ (quantum yield) ([2]; BDCCA library, Table 4): 0.8%

SMILES: Nc1ccc(C2=C3C=CC(NCc4cc(F)cc(F)c4)=[N+]3[B-](F)(F)n3c2ccc3-n2cc(CCc3ccccc3)nn2)cc1 [MK412-19]
λmax Absorp. ([1]; MK library, Table 5): 475 nm
λmax Emission ([1]; MK library, Table 5): 564 nm
φ (quantum yield) ([2]; MK library, Table 5): 0.92%

SMILES: Nc1ccc(C2=C3C=CC(NCc4cc(F)cc(F)c4)=[N+]3[B-](F)(F)n3c2ccc3-n2cc(C3CC3)nn2)cc1 [MK412-4]
λmax Absorp. ([1]; MK library, Table 5): 475 nm
λmax Emission ([1]; MK library, Table 5): 562 nm
φ (quantum yield) ([2]; MK library, Table 5): 0.67%

Results, then the compound that gave them:

λmax Absorp. (nm) [1]: 465 nm
λmax Emission (nm) [1]: 564 nm
φ (%) ([2]; MKCA compound library): 21.21%
SMILES: COc1ccc(OC)c(CNC2=[N+]3C(=C(c4ccc(NC(=O)CCl)cc4)c4ccc(-n5cc(CC(C)C)nn5)n4[B-]3(F)F)C=C2)c1 [MKCA181-43]

λmax Absorp. ([1]; MK library, Table 5): 473 nm
λmax Emission ([1]; MK library, Table 5): 563 nm
φ (quantum yield) ([2]; MK library, Table 5): 1.91%
SMILES: CCCc1cn(-c2ccc3n2[B-](F)(F)[N+]2=C(NCc4ccccc4OCC)C=CC2=C3c2ccc(N)cc2)nn1 [MK103-48]

λmax Absorp. (nm) [1]: 468 nm
λmax Emission (nm) [1]: 563 nm
φ (%) ([2]; MKCA compound library): 37.83%
SMILES: CC(C)Cc1cn(-c2ccc3n2[B-](F)(F)[N+]2=C(NCc4cc(F)cc(F)c4)C=CC2=C3c2ccc(NC(=O)CCl)cc2)nn1 [MKCA412-43]

λmax Absorp. (nm) [1]: 462 nm
λmax Emission (nm) [1]: 561 nm
φ (%) ([2]; MKCA compound library): 24.66%
SMILES: CCOc1ccccc1CNC1=[N+]2C(=C(c3ccc(NC(=O)CCl)cc3)c3ccc(-n4cc(CN(C)Cc5ccccc5)nn4)n3[B-]2(F)F)C=C1 [MKCA103-18]

λmax Absorp. (nm) [1]: 464 nm
λmax Emission (nm) [1]: 565 nm
φ (%) ([2]; MKCA compound library): 34.56%
SMILES: Cc1ccccc1CNC1=[N+]2C(=C(c3ccc(NC(=O)CCl)cc3)c3ccc(-n4cc(C5CC5)nn4)n3[B-]2(F)F)C=C1 [MKCA101-4]

λmax Abs. (nm) [1]: 466 nm
λmax Em. (nm) [1]: 562 nm
φ (%) ([2]; MKAC compound library): 20.07%
SMILES: CCCc1cn(-c2ccc3n2[B-](F)(F)[N+]2=C(NCc4ccccc4OCC)C=CC2=C3c2ccc(NC(C)=O)cc2)nn1 [MKAC103-48]
